Values after ≈ are worked out from the molar mass of the structure shown. Like-named read-outs stand apart in the source and are kept apart here. Bounds are passed on as bounds.

This data set in a line: Solubility of cinacalcet in water as a function of pH. Format: physicochemical. As for the experimental part:
Calcium receptor-active compounds are known in the art. One example of a calcium receptor-active compound is cinacalcet HCl, which is described, for example, in U.S. Pat. No. 6,001,884. Such calcium receptor-active compounds may be insoluble or sparingly soluble in water, particularly in their non-ionized state. […] However, when the pH is about 1, the solubility decreases to about 0.1 mg/mL. Such limited solubility can reduce the number of formulation and delivery options available for these calcium receptor-active compounds. Limited water solubility can also result in low bioavailability of the compounds.

`C[C@@H](NCCCc1cccc(C(F)(F)F)c1)c1cccc2ccccc12` [cinacalcet, N-(1-(R)-(1-naphthyl)ethyl]-3-[3-(trifluoromethyl)phenyl]-1-aminopropane]: the solubility (usually the concentration that dissolves in the medium under given conditions) runs as follows: (aqueous buffer, pH ranges from about 3 to about 5, read-out: solubility) around 1600 µg/mL (≈ 4480 µM); (pH 1, simulated gastric fluid, pH about 1, read-out: solubility) around 100 µg/mL (≈ 280 µM); (pH 7, water, neutral pH, read-out: solubility in water) below 1 µg/mL.

(Values after patent US7829595B2, “Rapid dissolution formulation of a calcium receptor-active compound” (Amgen Inc., priority 2003, dated 2010).)
